Data: US20240336642A1 (The General Hospital Corporation, priority 2021, published 2024)

What was measured:
12-LOX = 12-LOX (Homo sapiens (Human), UniProt P18054); experiment: Selectivity versus 12-LOX; format: biochemical
SAH wild-type mice = experiment: Subarachnoid hemorrhage (SAH) mouse model; format: in vivo; conditions: wild-type mice with SAH
Description: The effect of the exemplified compounds (which are, e.g., inhibitors of 12/15-LOX as discussed herein) on treating bran injury after subarachnoid hemorrhage can be assessed in a mouse model as described, for example, in Gaberel et al, Stroke, 2019, 50, 520-523, which is incorporated herein by reference in its entirety. Subarachnoid hemorrhage (SAH) is a devastating form of stroke. It may lead to substantial brain injury. The mouse model to study the impact of 12/15-LOX inhibitors on subarachnoid hemorrhage includes C57Bl6 wild-type mice and Alox15 knockout mice. These mice are subjected to SAH using direct blood injection technique. […] Immunohistochemistry, brain edema, blood-brain barrier leakage and functional outcomes were assessed 1 and 3 days after SAH induction. […]
All animal experiments were performed following protocols approved by the Massachusetts General Hospital Institutional Animal Care and Use Committee in accordance with the National Institutes of Health Guide for the Care and Use of Laboratory Animals. […] Sample sizes were evaluated as follows: based on prior experience, coefficients of variation around 35% between mice are expected. […]
Except the mice used for IHC 24 h after SAH induction, all mice were assessed at 72 hours using a 4-point Neuroscore scale, a 18 point Neuroscore scale, and by evaluating spontaneous activity. […]

12-LOX, sequence (P18054 whole entry): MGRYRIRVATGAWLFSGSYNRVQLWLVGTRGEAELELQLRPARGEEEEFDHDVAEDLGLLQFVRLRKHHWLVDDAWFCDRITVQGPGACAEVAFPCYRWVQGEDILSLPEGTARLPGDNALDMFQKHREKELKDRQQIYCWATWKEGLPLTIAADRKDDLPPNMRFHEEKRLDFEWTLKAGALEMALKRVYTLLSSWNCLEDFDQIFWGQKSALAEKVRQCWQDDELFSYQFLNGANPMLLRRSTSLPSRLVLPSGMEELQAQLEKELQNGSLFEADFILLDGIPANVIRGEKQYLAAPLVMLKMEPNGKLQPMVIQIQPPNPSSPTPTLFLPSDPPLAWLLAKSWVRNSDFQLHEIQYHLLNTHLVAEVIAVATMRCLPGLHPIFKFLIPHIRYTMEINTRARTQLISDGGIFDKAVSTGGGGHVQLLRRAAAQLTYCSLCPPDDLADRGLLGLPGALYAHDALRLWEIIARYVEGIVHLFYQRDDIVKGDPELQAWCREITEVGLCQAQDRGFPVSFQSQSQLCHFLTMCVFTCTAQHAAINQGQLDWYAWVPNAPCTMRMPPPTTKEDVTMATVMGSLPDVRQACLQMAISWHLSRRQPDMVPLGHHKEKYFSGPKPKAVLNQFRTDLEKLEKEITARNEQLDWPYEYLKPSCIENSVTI

For `CNc1oc(-c2cc(Cl)cc(Cl)c2Cl)nc1C#N` [Compound 1, 5-(methylamino)-2-(2,3,5-trichlorophenyl) oxazole-4-carbonitrile], which “selectivity over 12-LOX” value (12-LOX) is on record?
Its value is over 400 fold.

And the “Neuronal cell death after SAH” value (SAH wild-type mice)?
Its value is “reduced”.
